Some results are limits rather than exact numbers.

One assay relates to HCT116 cells. Description: In vitro cytotoxicity measured by the cell colony formation assay. In kind it is cell-based. The note with it: HCT116 cells, 72 h incubation with drug, colonies counted after 7 days; ID50 = drug concentration producing 50% inhibition of colony formation; read-out: IN VITRO ID 50 (nm) HCT116. The procedure, abridged:
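Colony-forming survival was scored 7 days after a 72 h, 37 °C compound exposure followed by washout into fresh medium.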
For `CCOC(=O)O[C@H]1C(=O)[C@@]2(C)C([C@H](OC(=O)c3ccccc3)[C@]3(O)C[C@H](OC(=O)[C@H](O)[C@@H](NC(=O)c4cccs4)c4ccco4)C(C)=C1C3(C)C)[C@]1(OC(C)=O)CO[C@@H]1C[C@@H]2O` (stereo partly drawn) [Compound 4088], the IC50 was < 10 nM. Still for that read-out and setting: for `COC(=O)O[C@H]1C[C@H]2OC[C@@]2(OC(C)=O)C2[C@H](OC(=O)c3ccccc3)[C@]3(O)C[C@H](OC(=O)[C@H](O)[C@@H](NC(=O)OC(C)C)c4cccs4)C(C)=C([C@@H](O)C(=O)[C@@]21C)C3(C)C` (stereo partly drawn) [Compound 4144] the value was < 1 nM; for `CCOC(=O)O[C@H]1C[C@H]2OC[C@@]2(OC(C)=O)C2[C@H](OC(=O)c3ccccc3)[C@]3(O)C[C@H](OC(=O)[C@H](O)[C@@H](NC(=O)OC(C)C)c4cccs4)C(C)=C([C@@H](O)C(=O)[C@@]21C)C3(C)C` (stereo partly drawn) [Compound 4151], < 1 nM.

`CCOC(=O)O[C@H]1C[C@H]2OC[C@@]2(OC(C)=O)C2[C@H](OC(=O)c3ccccc3)[C@]3(O)C[C@H](OC(=O)[C@H](O)[C@@H](NC(=O)C=C(C)C)c4cccs4)C(C)=C([C@@H](O)C(=O)[C@@]21C)C3(C)C` (stereo partly drawn) [Compound 4164]: the IC50 is < 1 nM. For `CCOC(=O)O[C@H]1C[C@H]2OC[C@@]2(OC(C)=O)C2[C@H](OC(=O)c3ccccc3)[C@]3(O)C[C@H](OC(=O)[C@H](O)[C@@H](NC(=O)c4ccccc4)c4cccs4)C(C)=C([C@@H](O)C(=O)[C@@]21C)C3(C)C` (stereo partly drawn) [Compound 4188], the IC50 is < 10 nM. As for `COC(=O)O[C@H]1C[C@H]2OC[C@@]2(OC(C)=O)C2[C@H](OC(=O)c3ccccc3)[C@]3(O)C[C@H](OC(=O)[C@H](O)[C@@H](NC(=O)c4ccco4)c4cccs4)C(C)=C([C@@H](O)C(=O)[C@@]21C)C3(C)C` (stereo partly drawn) [Compound 4222], the IC50 is < 1 nM. On the same count and under the same terms, to `CCOC(=O)O[C@H]1C[C@H]2OC[C@@]2(OC(C)=O)C2[C@H](OC(=O)c3ccccc3)[C@]3(O)C[C@H](OC(=O)[C@H](O)[C@@H](NC(=O)OC(C)(C)C)c4cccs4)C(C)=C([C@@H](O)C(=O)[C@@]21C)C3(C)C` (stereo partly drawn) [Compound 4234] belongs < 1 nM; to `COC(=O)O[C@H]1C[C@H]2OC[C@@]2(OC(C)=O)C2[C@H](OC(=O)c3ccccc3)[C@]3(O)C[C@H](OC(=O)[C@H](O)[C@@H](NC(=O)C=C(C)C)c4cccs4)C(C)=C([C@@H](O)C(=O)[C@@]21C)C3(C)C` (stereo partly drawn) [Compound 4244], < 1 nM.

Regarding `CCOC(=O)O[C@H]1C[C@H]2OC[C@@]2(OC(C)=O)C2[C@H](OC(=O)c3ccccc3)[C@]3(O)C[C@H](OC(=O)[C@H](O)[C@@H](NC(=O)c4ccco4)c4cccs4)C(C)=C([C@@H](O)C(=O)[C@@]21C)C3(C)C` (stereo partly drawn) [Compound 4304], the IC50 is < 10 nM. Turning to `COC(=O)O[C@H]1C[C@H]2OC[C@@]2(OC(C)=O)C2[C@H](OC(=O)c3ccccc3)[C@]3(O)C[C@H](OC(=O)[C@H](O)[C@@H](NC(=O)OCC(C)C)c4cccs4)C(C)=C([C@@H](O)C(=O)[C@@]21C)C3(C)C` (stereo partly drawn) [Compound 4355], the IC50 is < 1 nM. As to `CCOC(=O)O[C@H]1C[C@H]2OC[C@@]2(OC(C)=O)C2[C@H](OC(=O)c3ccccc3)[C@]3(O)C[C@H](OC(=O)[C@H](O)[C@@H](NC(=O)OCC(C)C)c4cccs4)C(C)=C([C@@H](O)C(=O)[C@@]21C)C3(C)C` (stereo partly drawn) [Compound 4363], the IC50 was < 10 nM.

Turning to `CCOC(=O)O[C@H]1C(=O)[C@@]2(C)C([C@H](OC(=O)c3ccccc3)[C@]3(O)C[C@H](OC(=O)[C@H](O)[C@@H](NC(=O)C=C(C)C)c4cccs4)C(C)=C1C3(C)C)[C@]1(OC(C)=O)CO[C@@H]1C[C@@H]2O` (stereo partly drawn) [Compound 4374], the IC50 was < 1 nM. With `COC(=O)O[C@H]1C[C@H]2OC[C@@]2(OC(C)=O)C2[C@H](OC(=O)c3ccccc3)[C@]3(O)C[C@H](OC(=O)[C@H](O)[C@@H](NC(=O)c4ccccc4)c4cccs4)C(C)=C([C@@H](O)C(=O)[C@@]21C)C3(C)C` (stereo partly drawn) [Compound 4411], the IC50 is < 1 nM.

Staying with this assay, now noted: HCT116 colony formation; 72 h drug incubation, colonies counted after 7 days; Example 5, C-7 ester/C-10 hydroxy taxanes; read-out: IN VITRO ID 50 (nm) HCT116.
On to `CCC(=O)O[C@H]1C[C@H]2OC[C@@]2(OC(C)=O)C2[C@H](OC(=O)c3ccccc3)[C@]3(O)C[C@H](OC(=O)[C@H](O)[C@@H](NC(=O)c4cccnc4)c4cccs4)C(C)=C([C@@H](O)C(=O)[C@@]21C)C3(C)C` (stereo partly drawn) [Compound 4106], for which the IC50 is < 10 nM. Still for that read-out and setting: to `CCCC(=O)O[C@H]1C[C@H]2OC[C@@]2(OC(C)=O)C2[C@H](OC(=O)c3ccccc3)[C@]3(O)C[C@H](OC(=O)[C@H](O)[C@@H](NC(=O)OC(C)C)c4cccs4)C(C)=C([C@@H](O)C(=O)[C@@]21C)C3(C)C` (stereo partly drawn) [Compound 4135] belongs < 1 nM; to `CCCC(=O)O[C@H]1C[C@H]2OC[C@@]2(OC(C)=O)C2[C@H](OC(=O)c3ccccc3)[C@]3(O)C[C@H](OC(=O)[C@H](O)[C@@H](NC(=O)c4ccccc4)c4cccs4)C(C)=C([C@@H](O)C(=O)[C@@]21C)C3(C)C` (stereo partly drawn) [Compound 4175], < 10 nM. Take `CCCC(=O)O[C@H]1C[C@H]2OC[C@@]2(OC(C)=O)C2[C@H](OC(=O)c3ccccc3)[C@]3(O)C[C@H](OC(=O)[C@H](O)[C@@H](NC(=O)c4ccco4)c4cccs4)C(C)=C([C@@H](O)C(=O)[C@@]21C)C3(C)C` (stereo partly drawn) [Compound 4219]: the IC50 was determined as 29 nM. As for `CCCC(=O)O[C@H]1C[C@H]2OC[C@@]2(OC(C)=O)C2[C@H](OC(=O)c3ccccc3)[C@]3(O)C[C@H](OC(=O)[C@H](O)[C@@H](NC(=O)OC(C)(C)C)c4cccs4)C(C)=C([C@@H](O)C(=O)[C@@]21C)C3(C)C` (stereo partly drawn) [Compound 4256], the IC50 is < 1 nM. For `CCCC(=O)O[C@H]1C[C@H]2OC[C@@]2(OC(C)=O)C2[C@H](OC(=O)c3ccccc3)[C@]3(O)C[C@H](OC(=O)[C@H](O)[C@@H](NC(=O)C=C(C)C)c4cccs4)C(C)=C([C@@H](O)C(=O)[C@@]21C)C3(C)C` (stereo partly drawn) [Compound 4283], the IC50 is < 1 nM. In the case of `CCCC(=O)O[C@H]1C[C@H]2OC[C@@]2(OC(C)=O)C2[C@H](OC(=O)c3ccccc3)[C@]3(O)C[C@H](OC(=O)[C@H](O)[C@@H](NC(=O)OCC(C)C)c4cccs4)C(C)=C([C@@H](O)C(=O)[C@@]21C)C3(C)C` (stereo partly drawn) [Compound 4290], the IC50 is < 10 nM.

As for `CCCC(=O)O[C@H]1C[C@H]2OC[C@@]2(OC(C)=O)C2[C@H](OC(=O)c3ccccc3)[C@]3(O)C[C@H](OC(=O)[C@H](O)[C@@H](NC(=O)C=C(C)C)c4cccs4)C(C)=C([C@@H](O)C(=O)[C@@]21C)C3(C)C` (stereo partly drawn) [Compound 4312], the IC50 was < 1 nM.

As for `CCCC(=O)O[C@H]1C[C@H]2OC[C@@]2(OC(C)=O)C2[C@H](OC(=O)c3ccccc3)[C@]3(O)C[C@H](OC(=O)[C@H](O)[C@@H](NC(=O)c4cccs4)c4cccs4)C(C)=C([C@@H](O)C(=O)[C@@]21C)C3(C)C` (stereo partly drawn) [Compound 4388], the IC50 is < 1 nM.

With `CCCC(=O)O[C@H]1C[C@H]2OC[C@@]2(OC(C)=O)C2[C@H](OC(=O)c3ccccc3)[C@]3(O)C[C@H](OC(=O)[C@H](O)[C@@H](NC(=O)OC(C)(C)C)c4ccoc4)C(C)=C([C@@H](O)C(=O)[C@@]21C)C3(C)C` (stereo partly drawn) [Compound 4394], the IC50 was < 1 nM. Same read-out and setting: to `CCCC(=O)O[C@H]1C[C@H]2OC[C@@]2(OC(C)=O)C2[C@H](OC(=O)c3ccccc3)[C@]3(O)C[C@H](OC(=O)[C@H](O)[C@H](C=C(C)C)NC(=O)OC(C)(C)C)C(C)=C([C@@H](O)C(=O)[C@@]21C)C3(C)C` (stereo partly drawn) [Compound 4406] belongs < 1 nM; to `CCCC(=O)O[C@H]1C[C@H]2OC[C@@]2(OC(C)=O)C2[C@H](OC(=O)c3ccccc3)[C@]3(O)C[C@H](OC(=O)[C@H](O)[C@@H](NC(=O)c4ccccc4)c4cccs4)C(C)=C([C@@H](O)C(=O)[C@@]21C)C3(C)C` (stereo partly drawn) [Compound 4414], < 1 nM.

Still in this assay, the particulars now being: HCT116 colony formation; 72 h drug incubation, colonies counted after 7 days; Example 10, C-10 ester/C-7 hydroxy taxanes; read-out: IN VITRO ID 50 (nm) HCT116.
With `CCCC(=O)N[C@@H](c1ccco1)[C@@H](O)C(=O)O[C@H]1C[C@@]2(O)[C@@H](OC(=O)c3ccccc3)C3[C@](C)(C(=O)[C@H](OC(=O)C4CC4)C(=C1C)C2(C)C)[C@@H](O)C[C@H]1OC[C@@]31OC(C)=O` (stereo partly drawn) [Compound 4062], the IC50 was < 1 nM. For `CC(=O)O[C@@]12CO[C@@H]1C[C@H](O)[C@@]1(C)C(=O)[C@H](OC(=O)C3CC3)C3=C(C)[C@@H](OC(=O)[C@H](O)[C@@H](NC(=O)c4cccnc4)c4cccs4)C[C@@](O)([C@@H](OC(=O)c4ccccc4)C12)C3(C)C` (stereo partly drawn) [Compound 4112], the IC50 is < 10 nM. Consider `CCC(=O)O[C@H]1C(=O)[C@@]2(C)C([C@H](OC(=O)c3ccccc3)[C@]3(O)C[C@H](OC(=O)[C@H](O)[C@@H](NC(=O)c4cccnc4)c4cccs4)C(C)=C1C3(C)C)[C@]1(OC(C)=O)CO[C@@H]1C[C@@H]2O` (stereo partly drawn) [Compound 4121], for which the IC50 was < 10 nM. Consider `CCCC(=O)O[C@H]1C(=O)[C@@]2(C)C([C@H](OC(=O)c3ccccc3)[C@]3(O)C[C@H](OC(=O)[C@H](O)[C@@H](NC(=O)c4cccnc4)c4cccs4)C(C)=C1C3(C)C)[C@]1(OC(C)=O)CO[C@@H]1C[C@@H]2O` (stereo partly drawn) [Compound 4190], for which the IC50 was < 10 nM.

For the compound `CCC(=O)O[C@H]1C(=O)[C@@]2(C)C([C@H](OC(=O)c3ccccc3)[C@]3(O)C[C@H](OC(=O)[C@H](O)[C@@H](NC(=O)c4ccncc4)c4cccs4)C(C)=C1C3(C)C)[C@]1(OC(C)=O)CO[C@@H]1C[C@@H]2O` (stereo partly drawn) [Compound 4207], the IC50 was < 10 nM.

In the case of `CC(=O)O[C@@]12CO[C@@H]1C[C@H](O)[C@@]1(C)C(=O)[C@H](OC(=O)C3CC3)C3=C(C)[C@@H](OC(=O)[C@H](O)[C@@H](NC(=O)C=C(C)C)c4cccs4)C[C@@](O)([C@@H](OC(=O)c4ccccc4)C12)C3(C)C` (stereo partly drawn) [Compound 4329], the IC50 is < 1 nM.

For `CCC(=O)O[C@H]1C(=O)[C@@]2(C)C([C@H](OC(=O)c3ccccc3)[C@]3(O)C[C@H](OC(=O)[C@H](O)[C@@H](NC(=O)C=C(C)C)c4cccs4)C(C)=C1C3(C)C)[C@]1(OC(C)=O)CO[C@@H]1C[C@@H]2O` (stereo partly drawn) [Compound 4335], the IC50 is < 1 nM. `CCCC(=O)O[C@H]1C(=O)[C@@]2(C)C([C@H](OC(=O)c3ccccc3)[C@]3(O)C[C@H](OC(=O)[C@H](O)[C@@H](NC(=O)C=C(C)C)c4cccs4)C(C)=C1C3(C)C)[C@]1(OC(C)=O)CO[C@@H]1C[C@@H]2O` (stereo partly drawn) [Compound 4344]: the IC50 was < 1 nM.

Source of the values: US6638973B2, “Taxane formulations” (FSU Research Foundation, Inc., priority 2000, dated 2003).
